Results as given in ChEMBL document CHEMBL1146218, “Highly brominated mono- and bis-phenols from the marine red alga Symphyocladia latiuscula with radical-scavenging activity” (J Nat Prod, 2007).

Assay: DPPH radical scavenging activity
Assay type: functional

| Structure (SMILES) | IC50 [µM] |
| --- | --- |
| Oc1c(O)c(Br)c(COCc2c(Br)c(O)c(O)c(Br)c2Br)c(Br)c1Br | 8.5 |
| COCc1c(Br)c(O)c(O)c(Br)c1Br | 15.5 |
| O=C1CCCN1Cc1c(Br)c(O)c(O)c(Br)c1Br | 18.5 |
| CS(=O)(=O)Cc1c(Br)c(O)c(O)c(Br)c1Br | 24 |
| O=Cc1c(Br)c(O)c(O)c(Br)c1Br | 24.7 |
| Cc1cc(C(C)(C)C)c(O)c(C(C)(C)C)c1 [BUTYLATED HYDROXYTOLUENE] | 81.8 |

Next, values leading:

| IC50 [µM] | Structure (SMILES) |
| --- | --- |
| 14 | Cc1c(Br)c(O)c(O)c(Br)c1Br |
| 10.5 | COCc1c(Br)c(O)c(O)c(Br)c1Cc1c(Br)c(O)c(O)c(Br)c1Br |
| 8.1 | Oc1c(O)c(Br)c(Cc2c(Br)c(O)c(O)c(Br)c2Br)c(Br)c1Br |
| 10.2 | Oc1c(O)c(Br)c(CCc2c(Br)c(O)c(O)c(Br)c2Br)c(Br)c1Br |
